Results: PubChem BioAssay AID248 (DTP/NCI, 2004)
Values joined by “and” are separate entries in the source; they are usually repeats but may differ in a detail not shown here. Identical values can stand only once. Inconclusive results and toxic doses are left out. No stated cut-off is given here; in the data, active means T/C of 150% or more; inactive means T/C below 125%. Square brackets hold non-standard residues; d marks the D form. Peptide text beside a SMILES is read from it. * marks the point of attachment. ξ: configuration not given here. Octanoyl = CCCCCCCC(=O)*; ξP = O=C(O)C1CCCN1

Tested on: L1210 leukemia ip in BDF1 mice, survival T/C
Experiment: NCI In Vivo Anticancer Drug Screen. Data for tumor model L1210 Leukemia (intraperitoneal) in B6D2F1 (BDF1) mice
Conditions: endpoint: mean survival time, higher = longer survival
Outline: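 Mice bearing the transplanted tumor received compound or vehicle. Survival of the treated group was divided by that of the vehicle-treated control group to give the ratio.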

[1] = dose: 100.0 mg/kg/injection, schedule: Q04DX002 (ip), vehicle: Klucel (hydroxypropylcellulose) (HPC)
[2] = dose: 200.0 mg/kg/injection, schedule: Q04DX002 (ip), vehicle: Klucel (hydroxypropylcellulose) (HPC)
[3] = dose: 400.0 mg/kg/injection, schedule: Q04DX002 (ip), vehicle: Klucel (hydroxypropylcellulose) (HPC)
[4] = dose: 25.0 mg/kg/injection, schedule: Q01DX009 (ip), vehicle: saline with Tween-80
[5] = dose: 50.0 mg/kg/injection, schedule: Q01DX009 (ip), vehicle: saline with Tween-80
[6] = dose: 100.0 mg/kg/injection, schedule: Q01DX009 (ip), vehicle: saline with Tween-80
[7] = dose: 100.0 mg/kg/injection, schedule: Q04DX003 (ip), vehicle: saline with Tween-80
[8] = dose: 100.0 mg/kg/injection, schedule: Q01DX009 (ip), vehicle: Klucel (hydroxypropylcellulose) (HPC)
[9] = dose: 100.0 mg/kg/injection, schedule: Q04DX003 (ip), vehicle: Klucel (hydroxypropylcellulose) (HPC)
[10] = dose: 200.0 mg/kg/injection, schedule: Q01DX009 (ip), vehicle: Klucel (hydroxypropylcellulose) (HPC)
[11] = dose: 200.0 mg/kg/injection, schedule: Q04DX003 (ip), vehicle: Klucel (hydroxypropylcellulose) (HPC)
[12] = dose: 400.0 mg/kg/injection, schedule: Q01DX009 (ip), vehicle: Klucel (hydroxypropylcellulose) (HPC)
[13] = dose: 400.0 mg/kg/injection, schedule: Q04DX003 (ip), vehicle: Klucel (hydroxypropylcellulose) (HPC)
[14] = dose: 100.0 mg/kg/injection, schedule: Q01DX001 (ip), vehicle: Klucel (hydroxypropylcellulose) (HPC)
[15] = dose: 200.0 mg/kg/injection, schedule: Q01DX001 (ip), vehicle: Klucel (hydroxypropylcellulose) (HPC)
[16] = dose: 400.0 mg/kg/injection, schedule: Q01DX001 (ip), vehicle: Klucel (hydroxypropylcellulose) (HPC)
[17] = dose: 25.0 mg/kg/injection, schedule: Q04DX003 (ip), vehicle: saline with Tween-80
[18] = dose: 50.0 mg/kg/injection, schedule: Q04DX003 (ip), vehicle: saline with Tween-80
[19] = dose: 100.0 mg/kg/injection, schedule: Q04DX003 (ip), vehicle: gum acacia
[20] = dose: 200.0 mg/kg/injection, schedule: Q04DX003 (ip), vehicle: gum acacia
[21] = dose: 400.0 mg/kg/injection, schedule: Q04DX003 (ip), vehicle: gum acacia
[22] = dose: 50.0 mg/kg/injection, schedule: Q01DX009 (ip), vehicle: Klucel (hydroxypropylcellulose) (HPC)

Measured: T/C

CN1C(=O)C=C(N)C1=O
inactive: dose: 100.0 mg/kg/injection, schedule: Q04DX003 (ip), vehicle: saline 96 % of control | dose: 200.0 mg/kg/injection, schedule: Q04DX003 (ip), vehicle: saline 94 % of control | dose: 400.0 mg/kg/injection, schedule: Q04DX003 (ip), vehicle: saline 91 % of control

CCCCOc1ccc(OCCCC)cc1
inactive: [1] 105 % of control | [2] 97 % of control | [3] 101 % of control

CNC(=S)Nc1c(C)cc(C)cc1C
inactive: [4] 98 % of control and 108 % of control | dose: 50.0 mg/kg/injection, schedule: Q01DX001 (ip), vehicle: saline with Tween-80 100 % of control | [5] 98 % of control and 105 % of control | dose: 100.0 mg/kg/injection, schedule: Q01DX001 (ip), vehicle: saline with Tween-80 91 % of control | [6] 97 % of control and 92 % of control | dose: 100.0 mg/kg/injection, schedule: Q04DX002 (ip), vehicle: saline with Tween-80 104 % of control and 106 % of control | [7] 104 % of control | dose: 200.0 mg/kg/injection, schedule: Q01DX001 (ip), vehicle: saline with Tween-80 96 % of control | dose: 200.0 mg/kg/injection, schedule: Q04DX002 (ip), vehicle: saline with Tween-80 96 % of control | dose: 200.0 mg/kg/injection, schedule: Q04DX003 (ip), vehicle: saline with Tween-80 94 % of control | dose: 400.0 mg/kg/injection, schedule: Q04DX003 (ip), vehicle: saline with Tween-80 95 % of control

CCCCCCCCCCCCCCCC(C)(C)O
inactive: [8] 102 % of control | [9] 96 % of control | [10] 100 % of control | [11] 96 % of control | [12] 102 % of control | [13] 101 % of control

Cc1ncc(CO)c(C2NOCc3ccc(Cl)cc32)c1O (stereo not drawn)
inactive: dose: 100.0 mg/kg/injection, schedule: Q04DX003 (ip), vehicle: acetone 104 % of control

N#CC(=N)C(C#N)=Nc1c(O)[nH]c2ccccc12
inactive: dose: 25.0 mg/kg/injection, schedule: Q01DX001 (ip), vehicle: DMSO 93 % of control | dose: 25.0 mg/kg/injection, schedule: Q01DX009 (ip), vehicle: DMSO 92 % of control | dose: 50.0 mg/kg/injection, schedule: Q01DX001 (ip), vehicle: DMSO 97 % of control | dose: 50.0 mg/kg/injection, schedule: Q01DX009 (ip), vehicle: DMSO 91 % of control | dose: 100.0 mg/kg/injection, schedule: Q01DX001 (ip), vehicle: DMSO 97 % of control and 102 % of control

CCCCCCCC(=O)N1CCCC1C(=O)NCC(=O)NCC(=O)O (stereo not drawn) (Octanoyl-[ξP]-Gly-Gly-OH)
inactive: [14] 115 % of control | [15] 95 % of control | [16] 95 % of control

CN1CCN(c2ccccc2N)CC1
inactive: dose: 5.0 mg/kg/injection, schedule: Q04DX003 (ip), vehicle: saline 107 % of control | dose: 10.0 mg/kg/injection, schedule: Q04DX003 (ip), vehicle: saline 96 % of control | dose: 20.0 mg/kg/injection, schedule: Q04DX003 (ip), vehicle: saline 96 % of control

COc1ccc2cc(OC)ccc2c1
inactive: dose: 100.0 mg/kg/injection, schedule: Q01DX001 (ip), vehicle: saline sonified 98 % of control | dose: 200.0 mg/kg/injection, schedule: Q01DX001 (ip), vehicle: saline sonified 96 % of control | dose: 400.0 mg/kg/injection, schedule: Q01DX001 (ip), vehicle: saline sonified 96 % of control

CC(C)c1nnnn1C12CC3CC(CC(C3)C1)C2
inactive: dose: 100.0 mg/kg/injection, schedule: Q01DX001 (ip), vehicle: saline 101 % of control | dose: 200.0 mg/kg/injection, schedule: Q01DX001 (ip), vehicle: saline 101 % of control | dose: 400.0 mg/kg/injection, schedule: Q01DX001 (ip), vehicle: saline 93 % of control

COc1ccc(Br)cc1C1OC(=O)c2c(OC)c(OC)cc(O)c21 (stereo not drawn)
inactive: [14] 96 % of control | [15] 98 % of control | [16] 94 % of control

CCCCCCCN(CCCCCCC)CC(O)c1cc2ccc(Cl)cc2nc1-c1ccc(Cl)cc1 (stereo not drawn)
inactive: [8] 87 % of control | [10] 97 % of control | [12] 87 % of control

Nc1nc(NCCCc2ccccc2)cc(=O)[nH]1
inactive: [17] 98 % of control | [18] 92 % of control

COc1ccc(C(O)(c2ccccc2)C(OC(=O)c2cc([N+](=O)[O-])cc([N+](=O)[O-])c2)c2ccccc2)cc1 (stereo not drawn)
inactive: [6] 91 % of control | dose: 200.0 mg/kg/injection, schedule: Q01DX009 (ip), vehicle: saline with Tween-80 96 % of control | dose: 400.0 mg/kg/injection, schedule: Q01DX009 (ip), vehicle: saline with Tween-80 95 % of control

CCCCNc1ccc(C(=O)O)cc1
inactive: dose: 100.0 mg/kg/injection, schedule: Q01DX009 (ip), vehicle: gum acacia 97 % of control | [19] 90 % of control | dose: 200.0 mg/kg/injection, schedule: Q01DX009 (ip), vehicle: gum acacia 92 % of control | [20] 91 % of control | dose: 400.0 mg/kg/injection, schedule: Q01DX009 (ip), vehicle: gum acacia 93 % of control | [21] 93 % of control

NC(N)=NNC(=S)S
inactive: [4] 102 % of control | [5] 110 % of control | [18] 95 % of control | [7] 92 % of control

CCCCN(C)CC#N
inactive: dose: 6.25 mg/kg/injection, schedule: Q01DX009 (ip), vehicle: saline with Tween-80 102 % of control | dose: 12.5 mg/kg/injection, schedule: Q01DX009 (ip), vehicle: saline with Tween-80 96 % of control | dose: 12.5 mg/kg/injection, schedule: Q04DX003 (ip), vehicle: saline with Tween-80 94 % of control | [4] 104 % of control | [17] 94 % of control

CC1CCN(c2ccc([N+](=O)[O-])cc2)CC1
inactive: [8] 100 % of control | [9] 97 % of control | [10] 99 % of control | [11] 95 % of control | [12] 100 % of control | [13] 101 % of control

O/N=C(/C=C(/C(=C/C(=N/O)c1ccccc1)c1ccccc1)c1ccccc1)c1ccccc1
inactive: [22] 102 % of control | [8] 94 % of control | [10] 87 % of control

CN(C)C(=O)NCc1cccs1
inactive: dose: 100.0 mg/kg/injection, schedule: Q04DX003 (ip), vehicle: carboxymethylcellulose (CMC) 97 % of control | dose: 200.0 mg/kg/injection, schedule: Q04DX003 (ip), vehicle: carboxymethylcellulose (CMC) 93 % of control | dose: 400.0 mg/kg/injection, schedule: Q04DX003 (ip), vehicle: carboxymethylcellulose (CMC) 104 % of control

O=C(O)c1cc(C(=O)Nc2ccc(C3=NCCN3)cc2)c(C(=O)O)cc1C(=O)Nc1ccc(C2=NCCN2)cc1
inactive: dose: 15.0 mg/kg/injection, schedule: Q01DX Z (ip), vehicle: carboxymethylcellulose (CMC) 95 % of control | dose: 30.0 mg/kg/injection, schedule: Q01DX Z (ip), vehicle: carboxymethylcellulose (CMC) 98 % of control | dose: 60.0 mg/kg/injection, schedule: Q01DX Z (ip), vehicle: carboxymethylcellulose (CMC) 101 % of control | dose: 120.0 mg/kg/injection, schedule: Q01DX Z (ip), vehicle: carboxymethylcellulose (CMC) 95 % of control

O=C1N(c2ccccc2)C(c2ccc([N+](=O)[O-])cc2)C1(c1ccccc1)c1ccccc1 (stereo not drawn)
inactive: [19] 96 % of control | [20] 89 % of control | [21] 96 % of control

CCC(C)c1cc(CN(C)C)cc(C(C)CC)c1O (stereo not drawn)
inactive: dose: 12.5 mg/kg/injection, schedule: Q01DX009 (ip), vehicle: Klucel (hydroxypropylcellulose) (HPC) 105 % of control | dose: 25.0 mg/kg/injection, schedule: Q01DX009 (ip), vehicle: Klucel (hydroxypropylcellulose) (HPC) 105 % of control | [22] 96 % of control | [8] 102 % of control

Cc1ccc(C(=O)N/N=C/c2c(O)ccc3ccccc23)cc1
inactive: [1] 89 % of control | [2] 89 % of control | [3] 96 % of control
